# Assay results from publication PMC3731320, “Identification of Benzimidazole Diamides as Selective Inhibitors of the Nucleotide-Binding Oligomerization Domain 2 (NOD2) Signaling Pathway” (PLoS ONE, 2013).
# Key:
# NOD2 [1] = test: MDP-stimulated IL-8 release in 293/hNOD2 cells (HTRF); format: cell-based, human; conditions: Homo sapiens
# Procedure: (§1) After 24 hours the amount of IL-8 secreted into the medium was determined by homogeneous time resolved fluorescence (HTRF) assay by the direct addition of a 1:1 mix of europium cryptate and XL665-conjugated anti-IL-8 antibodies according to the manufacturer's instructions (Cisbio).
# NOD1 [2] = test: iE-DAP-stimulated IL-8 release in 293/hNOD1 cells (HTRF); format: cell-based, human; conditions: Homo sapiens; IL-8 end-point; 60 ng/mL iE-DAP; read-out: IC50 293/hNOD1 iE-DAP
# Procedure: as §1
# NOD1 [3] = test: Tri-DAP-stimulated IL-8 release in HCT116 cells (endogenous NOD1); format: cell-based, human
# Procedure: (§2) Compound activity on endogenous NOD1 and NOD2 receptors was determined by inhibition of either Tri-DAP or MDP-stimulated IL-8 release, respectively, using HCT116 human colon carcinoma cells. […] The cells were maintained in DMEM high glucose medium supplemented with 25 mM HEPES and 10% FBS. For assay, cells were seeded into 96 well plates (90,000 cells/well) in DMEM containing 1% FBS and pre-incubated with compounds for 1 hour before addition of either 1 μg/mL MDP or 25 μg/mL Tri-DAP. The level of IL-8 released into medium after 24-hour incubation was determined by HTRF assay as described above and fluorescence measured on an Envision model 2102 multilabel plate reader (Perkin Elmer).
# NOD2 [4] = test: MDP-stimulated IL-8 release in HCT116 cells (endogenous NOD2); format: cell-based, human
# Procedure: as §2
# TNFR1 = test: TNFα-stimulated (TNFR1-induced) IL-8 release in 293/hNOD2 cells; format: cell-based, human; conditions: Homo sapiens; IL-8 end-point; 20 ng/mL rhTNFα; read-out: IC50 293/hNOD2 TNFα
# Procedure: as §1
# TLR2 = test: Pam2CSK4-stimulated IL-8 release in 293/hTLR2 cells; format: cell-based, human; conditions: Homo sapiens; IL-8 end-point; 3–10 ng/mL Pam2CSK4; read-out: IC50 293/hTLR2 Pam2CSK4
# Procedure: as §1
# [5] = biological target: T1, full length human FLAG-6His tagged RIP2 (Homo sapiens, UniProt O43353); test: RIP2 kinase autophosphorylation assay (ADP-Glo); format: biochemical; conditions: autophosphorylation of RIPK2; 10 μM ATP
# T1 construct: autophosphorylation of full length human FLAG-6His tagged RIP2; FLAG; 6His; made in house
# T1 sequence (O43353 whole entry): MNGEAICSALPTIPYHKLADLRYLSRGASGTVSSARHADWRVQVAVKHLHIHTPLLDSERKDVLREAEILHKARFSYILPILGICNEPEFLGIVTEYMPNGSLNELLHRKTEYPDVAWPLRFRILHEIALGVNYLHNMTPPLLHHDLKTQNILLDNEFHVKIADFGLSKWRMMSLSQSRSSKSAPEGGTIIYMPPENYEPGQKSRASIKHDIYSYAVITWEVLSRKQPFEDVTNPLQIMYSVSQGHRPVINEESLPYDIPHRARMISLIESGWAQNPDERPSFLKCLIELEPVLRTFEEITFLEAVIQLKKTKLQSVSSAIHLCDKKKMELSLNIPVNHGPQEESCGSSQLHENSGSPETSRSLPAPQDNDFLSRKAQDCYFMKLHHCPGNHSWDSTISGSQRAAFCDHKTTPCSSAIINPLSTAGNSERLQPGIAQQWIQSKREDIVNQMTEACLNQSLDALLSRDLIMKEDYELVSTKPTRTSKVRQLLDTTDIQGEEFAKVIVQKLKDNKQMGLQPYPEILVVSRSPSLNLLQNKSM
# Procedure: Direct effects of compounds on RIP2 kinase activity was determined by autophosphorylation of full length human FLAG-6His tagged RIP2 expressed and purified from baculovirus. Enzyme was pre-incubated with compounds in assay buffer (50 mM HEPES pH 7.5, 25 mM MgCl2, 0.05%[w/v] CHAPS, 1 mM DTT and 0.05 mg/mL BSA) in 384-well plates, and then incubated with 10μM ATP for 2 hours at room temperature. The amount of ADP generated was measured using the ADP-Glo universal ADP detection assay for kinases (Promega) and luminescence quantified on a ViewLux imager.
# NOD2 [6] = test: Western blot of MAPK phosphorylation and IκBα in MDP-stimulated 293/hNOD2 cells; format: cell-based, human; conditions: GSK669 at 1 and 10 μM
# Procedure: Confluent cultures of 293/-hNOD1 and -hNOD2 cells in 24-well plates were serum-starved over-night. The next day, cells were pre-incubated for 1 hour with compound and then stimulated for 1 hour with either 50 μg/mL Tri-DAP or 25 μg/mL MDP, respectively. Whole cell lysates were prepared in 1X cell lysis buffer (Cell Signaling Technology) containing additional inhibitors of aspartic, cysteine and serine proteases and aminopeptidases (protease inhibitor cocktail set III, EMD Biosciences) and inhibitors of multiple phosphatases (phosphatase inhibitor cocktail sets II and III, Sigma-Aldrich). The levels of phosphorylated and total p38, JNK, ERK1/2 and total IκBα were determined by immunoblotting of ∼20 μg protein per sample using the following primary antibodies: phospho-p38 MAPK (12F8, #4631), p38 MAPK (#9212), phospho-JNK (#9251), JNK (#9252) and IκBα (#9242) all purchased from Cell Signaling Technology, and phospho-ERK1/2 (sc-7383) and ERK1/2 (sc-94) antibodies from Santa Cruz Biotechnology.
# HCT116 cells = test: Uptake of MDP-rhodamine by HCT116 cells (fluorescence microscopy); format: cell-based, human; conditions: GSK669 up to 20 μM, chlorpromazine 20 μM, 1–4 hour
# Procedure: HCT116 cells seeded onto glass cover-slips at low density were pre-treated with GSK669 or the endocytosis inhibitor chlorpromazine for 30 minutes before addition of 2.5 μg/mL MDP-rhodamine. Live cells were viewed periodically over 6-hours incubation at 37 °C using a Nikon eclipse TE2000-E fluorescent inverted microscope fitted with a CCTV camera and rhodamine filter.
# [7] = MDP-stimulated IL-8 production assay in 293/hNOD2 cells, Figures 4 and 5, read-out: NOD2 IC50
Structure (SMILES),IC50 (NOD2 [1]; [7]),other results
"CC(C)c1ccc(NC(=O)Cn2c(CCNC(=O)c3ccccc3)nc3ccccc32)cc1 [Compound 2, N-(2-(1-(2-((4-isopropylphenyl)amino)-2-oxoethyl)-1H-benzo[d]imidazol-2-yl)ethyl)benzamide]",4 ± 3.9 µM,"IC50 (NOD2 [1]; IL-8 end-point, 30 ng/mL MDP, read-out: IC50 293/hNOD2 MDP): 5 µM; IC50 (NOD1 [2]): > 50 µM; IC50 (NOD1 [3]; Homo sapiens, HCT-116, IL-8 end-point, 25 μg/mL Tri-DAP): > 50 µM; effect on IL-8 secretion induced by Tri-DAP in HCT116 cells (NOD1 [3]; Tri-DAP 25 μg/mL, 1 hour pre-treatment): had no effect; IC50 (NOD2 [4]; Homo sapiens, HCT-116, IL-8 end-point, 1 μg/mL MDP): 1.1 ± 0.7 µM; effect on IL-8 secretion induced by MDP in HCT116 cells (NOD2 [4]; MDP 1 μg/mL, 1 hour pre-treatment): dose-dependently inhibited; IC50 (TNFR1): > 100 µM; IC50 (TLR2): > 100 µM; IC50 [5]: > 100 µM; effect on MDP-induced p-p38, p-JNK and total IκBα (NOD2 [6]): more modest inhibitory effects"
"CN(C)CCCN1c2ccccc2Sc2ccc(Cl)cc21 [chlorpromazine, reference compound]",,effect on uptake of Rhodamine-MDP into cells (HCT116 cells): intracellular punctate fluorescence did not develop
"O=C(Cn1c(CCNC(=O)c2ccccc2)nc2ccccc21)Nc1ccc(Oc2ccccc2)cc1 [Compound 13, N-(2-(1-(2-oxo-2-((4-phenoxyphenyl)amino)ethyl)-1H-benzo[d]imidazol-2-yl)ethyl)benzamide]",> 50 µM,
"CN(CCc1nc2ccccc2n1CC(=O)Nc1ccc2ccccc2c1)C(=O)c1ccccc1 [Compound 32, N-methyl-N-(2-(1-(2-(naphthalen-2-ylamino)-2-oxoethyl)-1H-benzo[d]imidazol-2-yl)ethyl)benzamide]",0.2 ± 0.01 µM,
"O=C(Cn1c(CCNC(=O)c2cccc(C(F)(F)F)c2)nc2ccccc21)Nc1ccc2c(c1)CCC2 [Compound 20, N-(2-(1-(2-((2,3-dihydro-1H-inden-5-yl)amino)-2-oxoethyl)-1H-benzo[d]imidazol-2-yl)ethyl)-3-(trifluoromethyl)benzamide]",> 50 µM,
"O=C(Cn1c(CCNC(=O)c2ccccc2)nc2ccccc21)Nc1ccc(Cl)c(Cl)c1 [Compound 8, N-(2-(1-(2-(3,4-dichlorophenylamino)-2-oxoethyl)-1H-benzo[d]imidazol-2-yl)ethyl)benzamide]",3.3 ± 2.1 µM,
"CN(CCc1nc2ccccc2n1CC(=O)Nc1ccc2occc2c1)C(=O)c1ccccc1 [Compound 36, N-(2-(1-(2-(benzofuran-5-ylamino)-2-oxoethyl)-1H-benzo[d]imidazol-2-yl)ethyl)-N-methylbenzamide]",1.3 µM,
"Cc1cccc2c1nc(CCNC(=O)c1ccccc1)n2CC(=O)Nc1ccc2c(c1)CCC2 [Compound 28, N-(2-(1-(2-((2,3-dihydro-1H-inden-5-yl)amino)-2-oxoethyl)-4-methyl-1H-benzo[d]imidazol-2-yl)ethyl)benzamide]",> 50 µM,
"CN(CCc1nc2ccccc2n1CC(=O)Nc1ccc(Cl)c(Cl)c1)C(=O)c1ccccc1 [Compound 35, N-(2-(1-(2-((3,4-dichlorophenyl)amino)-2-oxoethyl)-1H-benzo[d]imidazol-2-yl)ethyl)-N-methylbenzamide]",0.9 ± 0.2 µM,
"Cc1ccc(C(=O)NCCc2nc3ccccc3n2CC(=O)Nc2ccc3c(c2)CCC3)cc1 [Compound 18, N-(2-(1-(2-((2,3-dihydro-1H-inden-5-yl)amino)-2-oxoethyl)-1H-benzo[d]imidazol-2-yl)ethyl)-4-methylbenzamide]",> 50 µM,
"COc1ccc2c(c1)nc(CCNC(=O)c1ccccc1)n2CC(=O)Nc1ccc2c(c1)CCC2 [Compound 26, N-(2-(1-(2-((2,3-dihydro-1H-inden-5-yl)amino)-2-oxoethyl)-5-methoxy-1H-benzo[d]imidazol-2-yl)ethyl)benzamide]",> 50 µM,
"Cc1ccccc1C(=O)NCCc1nc2ccccc2n1CC(=O)Nc1ccc2c(c1)CCC2 [Compound 17, N-(2-(1-(2-((2,3-dihydro-1H-inden-5-yl)amino)-2-oxoethyl)-1H-benzo[d]imidazol-2-yl)ethyl)-2-methylbenzamide]",4.7 ± 0.5 µM,
"O=C(Cn1c(CCNC(=O)c2ccccc2)nc2ccccc21)Nc1ccc2c(c1)NCC2 [Compound 12, N-(2-(1-(2-(indolin-6-ylamino)-2-oxoethyl)-1H-benzo[d]imidazol-2-yl)ethyl)benzamide]",> 50 µM,
"Cc1ccc2c(c1)nc(CCNC(=O)c1ccccc1)n2CC(=O)Nc1ccc2c(c1)CCC2 [Compound 25, N-(2-(1-(2-((2,3-dihydro-1H-inden-5-yl)amino)-2-oxoethyl)-5-methyl-1H-benzo[d]imidazol-2-yl)ethyl)benzamide]",4.6 ± 1.9 µM,
"O=C(Cn1c(CCNC(=O)c2ccccc2)nc2ccccc21)Nc1ccc2ccccc2c1 [Compound 5, N-(2-(1-(2-(naphthalen-2-ylamino)-2-oxoethyl)-1H-benzo[d]imidazol-2-yl)ethyl)benzamide]",1.6 ± 1.3 µM,
"O=C(Cn1c(CCNC(=O)c2cccc3ccccc23)nc2ccccc21)Nc1ccc2c(c1)CCC2 [Compound 15, N-(2-(1-(2-((2,3-dihydro-1H-inden-5-yl)amino)-2-oxoethyl)-1H-benzo[d]imidazol-2-yl)ethyl)-1-naphthamide]",3.4 ± 0.2 µM,
"CN(C(=O)Cn1c(CCNC(=O)c2ccccc2)nc2ccccc21)c1ccc2c(c1)CCC2 [Compound 31, N-(2-(1-(2-((2,3-dihydro-1H-inden-5-yl)(methyl)amino)-2-oxoethyl)-1H-benzo[d]imidazol-2-yl)ethyl)benzamide]",20 µM,
"O=C(Cn1c(CCNC(=O)c2ccccc2)nc2ccccc21)Nc1ccc2sccc2c1 [Compound 4, N-(2-(1-(2-(benzo[b]thiophen-5-ylamino)-2-oxoethyl)-1H-benzo[d]imidazol-2-yl)ethyl)benzamide]",1.3 ± 0.02 µM,
"O=C(Cn1c(CCNC(=O)c2ccccc2)nc2ccccc21)Nc1ccc2c(c1)C(O)CC2 (centres unmarked) [Compound 9, N-(2-(1-(2-((3-hydroxy-2,3-dihydro-1H-inden-5-yl)amino)-2-oxoethyl)-1H-benzo[d]imidazol-2-yl)ethyl)benzamide]",35.2 ± 9.1 µM,
"O=C(Cn1c(CCNC(=O)c2cccc(Cl)c2)nc2ccccc21)Nc1ccc2c(c1)CCC2 [Compound 22, 3-chloro-N-(2-(1-(2-((2,3-dihydro-1H-inden-5-yl)amino)-2-oxoethyl)-1H-benzo[d]imidazol-2-yl)ethyl)benzamide]",> 50 µM,
"CC(C)c1cccc(NC(=O)Cn2c(CCN(C)C(=O)c3ccccc3)nc3ccccc32)c1 [Compound 33, N-(2-(1-(2-((3-isopropylphenyl)amino)-2-oxoethyl)-1H-benzo[d]imidazol-2-yl)ethyl)-N-methylbenzamide]",0.3 ± 0.01 µM,
"CN(CCc1nc2ccccc2n1CC(=O)Nc1ccc2sccc2c1)C(=O)c1ccccc1 [Compound 34, N-(2-(1-(2-(benzo[b]thiophen-5-ylamino)-2-oxoethyl)-1H-benzo[d]imidazol-2-yl)ethyl)-N-methylbenzamide]",0.6 ± 0.1 µM,
